Laboratory results reported in patent US10858366B2 (priority 2016, dated 2020).

How the values were obtained:
[1] = biological target: truncated Influenza A/victoria/75 PA(1-209) (Influenza A virus (strain A/Victoria/3/1975 H3N2), UniProt P31343); test: Endonuclease Inhibition Assay (PA FP Assay); assay type: binding; settings: fluorescence polarization, fluorescein-labeled probe
Method: Endonuclease Inhibition Assay (PA FP Assay)
Compounds were dissolved and serially diluted in 100% DMSO then 0.5 μl was transferred to 384-well plates. 50 nM truncated Influenza A/victoria/75 PA(1-209) was prepared in assay buffer (20 mM Tris, pH=7.5, 10 mM MgCl2, 0.01% Tween 20, 100 mM NaCl and 1 mM DTT) and 20 ul was added to each well of assay plate with compounds, centrifuged for 1 min at 1000 rpm and incubated for 30 min at room temperature. 20 μl of 20 nM fluorescein-labeled probe [5-(4-(3-carboxy-3-oxopropanoyl)-4-(4-chlorobenzyl)piperidine-1-carbonyl)-2-(6-hydroxy-3-oxo-3H-xanthen-9-yl)benzoic acid] in assay buffer was then added, centrifuged for 1 min at 1000 rpm and incubated for 60 min at room temperature.
Fluorescence polarization was measured on Perkin Elmer Envision plate reader with excitation at 480 nm and emission at 535 nm and reported in millipolarization units (mP). IC50 values were determined relative to wells containing 125 uM of a compound known to bind to the active site of PA and uninhibited wells containing 1.25% DMSO.

[2] = biological target: RNP_CAL (PB2, PB1, PA, NP, influenza A Luciferase reporter in 293T cells) (Influenza A virus (strain swl A/California/04/2009 H1N1), UniProt C3W5S0); test: cell-based

Row | SMILES | IC50 [1] [µM] | EC50 [2] [µM]
1 | O=c1cnn2c(c1O)-c1nccn1CC2C(c1ccccc1)c1ccccc1 (centres unmarked) [Example 1, 6-Benzhydryl-11-hydroxy-5H-imidazo[2′,1′:3,4]pyrazino[1,2-b]pyridazin-10(6H)-one] | 0.05 | 0.11
2 | O=c1cnn2c(c1O)-c1nccn1CC2C(c1cccc(F)c1)c1cccc(F)c1 (centres unmarked) [Example 2, 6-(bis(3-fluorophenyl)methyl)-11-hydroxy-5,6-dihydro-10H-imidazo[2′,1′:3,4]pyrazino[1,2-b]pyridazin-10-one] | 0.07 | 0.11
3 | O=c1cnn2c(c1O)-c1ncnn1CC2C(c1ccccc1)c1ccccc1 (centres unmarked) [Example 3, 6-benzhydryl-11-hydroxy-5,6-dihydro-10H-[1,2,4]triazolo[5′,1′:3,4]pyrazino[1,2-b]pyridazin-10-one] | 0.4 | 1.1
4 | O=c1ccn2c(c1O)-c1nccn1C[C@@H]2C(c1ccccc1)c1ccccc1 [Example 4, (S)-6-Benzhydryl-11-hydroxy-5H-imidazo[1,2-a]pyrido[2,1-c]pyrazin-10(6H)-one] | 0.01 | 0.16
5 | O=c1ccn2c(c1O)-c1ncc(Cl)n1C[C@@H]2C(c1ccccc1)c1ccccc1 [Example 5, (S)-6-Benzhydryl-3-chloro-11-hydroxy-5,6-dihydro-10H-imidazo[1,2-a]pyrido[2,1-c]pyrazin-10-one] | 0.02 | 0.1
6 | O=c1ccn2c(c1O)-c1nccn1CN2C(c1ccccc1)c1ccccc1 [Example 6, 6-benzhydryl-11-hydroxy-5H-imidazo[1,2-d]pyrido[2,1-f][1,2,4]triazin-10(6H)-one] | 0.04 | 0.19
7 | O=c1ccn2c(c1O)-c1ncc(Br)n1C[C@@H]2C(c1ccccc1)c1ccccc1 [Example 7, (S)-6-benzhydryl-3-bromo-11-hydroxy-5H-imidazo[1,2-a]pyrido[2,1-c]pyrazin-10(6H)-one] | 0.009 | 0.17
8 | O=c1ccn2c(c1O)-c1ncc(C3CC3)n1C[C@@H]2C(c1ccccc1)c1ccccc1 [Example 8, (S)-6-benzhydryl-3-cyclopropyl-11-hydroxy-5H-imidazo[1,2-a]pyrido[2,1-c]pyrazin-10(6H)-one] | 0.04 | 0.15
9 | Cc1nc2n(c1C)C[C@H](C(c1ccccc1)c1ccccc1)n1ccc(=O)c(O)c1-2 [Example 14, (S)-6-benzhydryl-11-hydroxy-2,3-dimethyl-5H-imidazo[1,2-a]pyrido[2,1-c]pyrazin-10(6H)-one] | 0.1 | 4.2
10 | O=c1cnn2c(c1O)-c1nccn1C[C@@H]2[C@H](c1ccccc1)c1ccc(F)cc1 [Example 17, (S)-6-((R)-(4-fluorophenyl)(phenyl)methyl)-11-hydroxy-5,6-dihydro-10H-imidazo[2′,1′:3,4]pyrazino[1,2-b]pyridazin-10-one] | 0.02 | 0.01
11 | O=c1cnn2c(c1O)-c1nccn1C[C@@H]2[C@@H](c1ccccc1)c1ccc(F)cc1 [Example 18, (S)-6-((S)-(4-fluorophenyl)(phenyl)methyl)-11-hydroxy-5,6-dihydro-10H-imidazo[2′,1′:3,4]pyrazino[1,2-b]pyridazin-10-one] | 0.02 | 0.13
12 | O=c1cnn2c(c1O)-c1nccn1C[C@@H]2[C@H](c1ccc(F)cc1)c1cncc(F)c1 [Example 19, (S)-6-((R)-(4-fluorophenyl)(5-fluoropyridin-3-yl)methyl)-11-hydroxy-5,6-dihydro-10H-imidazo[2′,1′:3,4]pyrazino[1,2-b]pyridazin-10-one] | 0.04 | 0.26
13 | O=c1cnn2c(c1O)-c1nccn1C[C@@H]2[C@H](c1ccc(F)cc1)c1ccc(C(F)(F)F)nc1 [Example 20, (S)-6-((R)-(4-fluorophenyl)(6-(trifluoromethyl)pyridin-3-yl)methyl)-11-hydroxy-5,6-dihydro-10H-imidazo[2′,1′:3,4]pyrazino[1,2-b]pyridazin-10-one] | 0.3 | 0.72
14 | O=c1cnn2c(c1O)-c1nccn1C[C@@H]2C(c1cccc(F)c1)c1cccc(F)c1 [Example 23, (S)-6-(bis(3-fluorophenyl)methyl)-11-hydroxy-5,6-dihydro-10H-imidazo[2′,1′:3,4]pyrazino[1,2-b]pyridazin-10-one] | 0.05 | 0.039
15 | O=c1cnn2c(c1O)-c1nccn1C[C@@H]2[C@@H](c1ccc(F)cc1)c1cccc(F)c1 [Example 24, (S)-6-((S)-(3-fluorophenyl)(4-fluorophenyl)methyl)-11-hydroxy-5,6-dihydro-10H-imidazo[2′,1′:3,4]pyrazino[1,2-b]pyridazin-10-one] | 0.009 | 0.036
16 | O=c1cnn2c(c1O)-c1nccn1C[C@@H]2[C@@H](c1ccc(F)cc1)c1cccc(Br)c1 [Example 30, (S)-6-((S)-(3-bromophenyl)(4-fluorophenyl)methyl)-11-hydroxy-5,6-dihydro-10H-imidazo[2′,1′:3,4]pyrazino[1,2-b]pyridazin-10-one] | 0.01 | 
17 | O=c1cnn2c(c1O)-c1nccn1C[C@@H]2[C@@H](c1ccc(F)cc1)c1ccc(Cl)cc1 [Example 33, (S)-6-((S)-(4-chlorophenyl)(4-fluorophenyl)methyl)-11-hydroxy-5,6-dihydro-10H-imidazo[2′,1′:3,4]pyrazino[1,2-b]pyridazin-10-one] | 0.02 | 0.11
18 | Cc1cccc([C@H](c2ccc(F)cc2)[C@H]2Cn3ccnc3-c3c(O)c(=O)cnn32)c1 [Example 38, (S)-6-((S)-(4-fluorophenyl)(m-tolyl)methyl)-11-hydroxy-5,6-dihydro-10H-imidazo[2′,1′:3,4]pyrazino[1,2-b]pyridazin-10-one] | 0.04 | 0.049
19 | O=c1ccn2c(c1O)-c1ncc(CO)n1C[C@@H]2C(c1ccccc1)c1ccccc1 [Example 54, (S)-6-benzhydryl-11-hydroxy-3-(hydroxymethyl)-5,6-dihydro-10H-imidazo [1,2-a]pyrido[2,1-c]pyrazin-10-one] | 0.1 | 
20 | O=c1ccn2c(c1O)-c1nccn1C(C1CC1)N2C(c1ccccc1)c1ccccc1 (centres unmarked) [Example 73, 6-benzhydryl-5-cyclopropyl-11-hydroxy-5,6-dihydro-10H-imidazo[1,2-d]pyrido[2,1-f][1,2,4]triazin-10-one] |  | 0.17
21 | O=c1ccn2c(c1O)-c1nccn1CN2C1c2ccccc2CSc2ccccc21 (centres unmarked) [Example 74, 6-(6,11-dihydrodibenzo[b,e]thiepin-11-yl)-11-hydroxy-5,6-dihydro-10H-imidazo[1,2-d]pyrido[2,1-f][1,2,4]triazin-10-one] |  | 0.084
22 | O=c1ccn2c(c1O)-c1nccn1C(C1CC1)N2C1c2ccccc2CSc2ccccc21 (centres unmarked) [Example 76, 5-cyclopropyl-6-(6,11-dihydrodibenzo[b,e]thiepin-11-yl)-11-hydroxy-5,6-dihydro-10H-imidazo[1,2-d]pyrido[2,1-f][1,2,4]triazin-10-one] |  | 0.16
23 | O=c1ccn2c(c1O)-c1nccn1C1(COC1)N2C1c2ccccc2CSc2ccccc21 (centres unmarked) [Example 80, 6-(6,11-dihydrodibenzo[b,e]thiepin-11-yl)-11-hydroxy-6H,10H-spiro[imidazo[1,2-d]pyrido[2,1-f][1,2,4]triazine-5,3′-oxetan]-10-one] |  | 0.01
24 | O=c1ccn2c(c1O)-c1ncsc1CN2C(c1ccccc1)c1ccccc1 [Example 81, 5-benzhydryl-10-hydroxy-4,5-dihydro-9H-pyrido[1,2-b]thiazolo[4,5-d]pyridazin-9-one] |  | 7
25 | O=c1ccn2c(c1O)-c1ncoc1CN2C(c1ccccc1)c1ccccc1 [Example 83, 5-benzhydryl-10-hydroxy-4,5-dihydro-9H-oxazolo[4,5-d]pyrido[1,2-b]pyridazin-9-one] |  | 0.97
26 | O=c1ccn2c(c1O)-c1ocnc1CN2C(c1ccccc1)c1ccccc1 [Example 84, 5-benzhydryl-10-hydroxy-4,5-dihydro-9H-oxazolo[5,4-d]pyrido[1,2-b]pyridazin-9-one] |  | 11
27 | CC(=O)Oc1c2n(ncc1=O)[C@@H](C(c1ccc(F)cc1)c1ccc(F)cc1)Cn1ccnc1-2 [Example 85, (S)-6-(bis(4-fluorophenyl)methyl)-10-oxo-5,6-dihydro-10H-imidazo[2′,1′:3,4]pyrazino[1,2-b]pyridazin-11-yl acetate] |  | 0.022
28 | CC(C)C(=O)Oc1c2n(ncc1=O)[C@@H](C(c1ccc(F)cc1)c1ccc(F)cc1)Cn1ccnc1-2 [Example 86, (S)-6-(bis(4-fluorophenyl)methyl)-10-oxo-5,6-dihydro-10H-imidazo[2′,1′:3,4]pyrazino[1,2-b]pyridazin-11-yl isobutyrate] |  | 0.021
29 | CC(C)CC(=O)Oc1c2n(ncc1=O)[C@@H](C(c1ccc(F)cc1)c1ccc(F)cc1)Cn1ccnc1-2 [Example 87, (S)-6-(bis(4-fluorophenyl)methyl)-10-oxo-5,6-dihydro-10H-imidazo[2′,1′:3,4]pyrazino[1,2-b]pyridazin-11-yl 3-methylbutanoate] |  | 0.021
30 | COC(=O)OCOc1c2n(ncc1=O)[C@@H](C(c1ccc(F)cc1)c1ccc(F)cc1)Cn1ccnc1-2 [Example 88, (S)-((6-(bis(4-fluorophenyl)methyl)-10-oxo-5,6-dihydro-10H-imidazo[2′,1′:3,4]pyrazino[1,2-b]pyridazin-11-yl)oxy)methyl methyl carbonate] |  | 0.042
